Results on 23 compounds are retold here after patent US20260374756A1, “HETEROCYCLIC COMPOUNDS AS INHIBITORS OF MONOACYLGLYCEROL LIPASE (MAGL)” (Hoffmann-La Roche Inc., priority 2022, published 2026).

The target of this assay is T1, hMAGL (Homo sapiens, UniProt Q99685).
T1 sequence (Q99685 1-303): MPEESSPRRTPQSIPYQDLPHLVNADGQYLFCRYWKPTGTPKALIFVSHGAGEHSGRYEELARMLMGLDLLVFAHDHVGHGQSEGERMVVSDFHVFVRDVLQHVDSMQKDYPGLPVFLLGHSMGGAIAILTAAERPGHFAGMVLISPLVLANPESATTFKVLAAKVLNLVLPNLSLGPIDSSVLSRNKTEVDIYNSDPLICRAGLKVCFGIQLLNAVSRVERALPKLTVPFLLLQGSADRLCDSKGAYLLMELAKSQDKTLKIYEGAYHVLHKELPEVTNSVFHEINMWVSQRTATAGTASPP
As to the kind of experiment: 2-AG assay: MAGL inhibition, hydrolysis of 2-arachidonoylglycerol to arachidonic acid followed by mass spectrometry. It counts as biochemical. The method in brief: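 MAGL preincubated with compound 15 min at RT in 50 mM Tris, 1 mM EDTA, 0.01% Tween-20, 2.5% DMSO; reaction started with 8 μM 2-AG (final), […], 30 min at RT. Quenched with acetonitrile containing d8-arachidonic acid; arachidonic acid quantified by RapidFire SPE-triple quad MS as arachidonic acid/d8 ratio.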
In general, IC50 refers to the concentration needed to halve the response being measured. Low readings indicate higher potency, high ones lower potency. In turn, `O=C(N1CC2(CC(Cc3n[nH]c(C4CC4)n3)C2)C1)N1CC2(CC(n3cnc(C(F)F)n3)C2)C1` [Example 318, [6-[(5-cyclopropyl-1H-1,2,4-triazol-3-yl)methyl]-2-azaspiro[3.3]heptan-2-yl]-[6-[3-(difluoromethyl)-1,2,4-triazol-1-yl]-2-azaspiro[3.3]heptan-2-yl]methanone] came in with an IC50 of 62.8 nM.

Compound `CC(C)(C)n1ccnc1CN1CC2(C1)CN(C(=O)N1CC3(CC(n4cnc(C(F)(F)F)n4)C3)C1)C2` [Example 319, [6-[(1-tert-butylimidazol-2-yl)methyl]-2,6-diazaspiro[3.3]heptan-2-yl]-[6-[3-(trifluoromethyl)-1,2,4-triazol-1-yl]-2-azaspiro[3.3]heptan-2-yl]methanone] displayed an IC50 of 58.3 nM.

Consider `O=C(N1CC2(CC(Cc3n[nH]c(C(F)(F)F)n3)C2)C1)N1CC2(CC(n3cnc(C(F)F)n3)C2)C1` [Example 320, [6-[3-(difluoromethyl)-1,2,4-triazol-1-yl]-2-azaspiro[3.3]heptan-2-yl]-[6-[[5-(trifluoromethyl)-1H-1,2,4-triazol-3-yl]methyl]-2-azaspiro[3.3]heptan-2-yl]methanone], for which inhibition was half-maximal at 52.8 nM (IC50).

On to `O=C(N1CC2(CC(n3cnc(C4CC4)n3)C2)C1)N1CC2(CN(Cc3ccn(CCC(F)(F)F)n3)C2)C1` [Example 321, [6-(3-cyclopropyl-1,2,4-triazol-1-yl)-2-azaspiro[3.3]heptan-2-yl]-[6-[[1-(3,3,3-trifluoropropyl)pyrazol-3-yl]methyl]-2,6-diazaspiro[3.3]heptan-2-yl]methanone], for which the IC50 was 49.1 nM.

On to `Cn1c(CN2CC3(C2)CN(C(=O)N2CC4(CC(n5cnc(C6CC6)n5)C4)C2)C3)nnc1C(F)(F)F` [Example 322, [6-(3-cyclopropyl-1,2,4-triazol-1-yl)-2-azaspiro[3.3]heptan-2-yl]-[6-[[4-methyl-5-(trifluoromethyl)-1,2,4-triazol-3-yl]methyl]-2,6-diazaspiro[3.3]heptan-2-yl]methanone], for which it took 46.7 nM to reach half-maximal inhibition (IC50).

`O=C(N1CC2(CC(n3cnc(C4CC4)n3)C2)C1)N1CC2(CN(Cc3noc(C(F)(F)F)n3)C2)C1` [Example 323, [6-(3-cyclopropyl-1,2,4-triazol-1-yl)-2-azaspiro[3.3]heptan-2-yl]-[6-[[5-(trifluoromethyl)-1,2,4-oxadiazol-3-yl]methyl]-2,6-diazaspiro[3.3]heptan-2-yl]methanone] gave an IC50 of 36.3 nM.

Compound `N=S(=O)(c1cnn(CC2CC3(C2)CN(C(=O)N2CC4(CC(n5cnc(C(F)F)n5)C4)C2)C3)c1)C(F)(F)F` (centres unmarked) [Example 324, [6-[3-(difluoromethyl)-1,2,4-triazol-1-yl]-2-azaspiro[3.3]heptan-2-yl]-[6-[[4-(trifluoromethylsulfonimidoyl)pyrazol-1-yl]methyl]-2-azaspiro[3.3]heptan-2-yl]methanone] returned an IC50 of 25.6 nM.

As to `O=C(N1CC2(CC(Cn3ncnc3C(F)(F)F)C2)C1)N1CC2(CC(n3cnc(C4(O)CC4)n3)C2)C1` [Example 325, [6-[3-(1-hydroxycyclopropyl)-1,2,4-triazol-1-yl]-2-azaspiro[3.3]heptan-2-yl]-[6-[[5-(trifluoromethyl)-1,2,4-triazol-1-yl]methyl]-2-azaspiro[3.3]heptan-2-yl]methanone], the IC50 is 23.1 nM.

`O=C(N1CC2(CC(Cc3nc(C(F)(F)F)c[nH]3)C2)C1)N1CC2(CC(n3cnc(C(F)F)n3)C2)C1` [Example 326, [6-[3-(difluoromethyl)-1,2,4-triazol-1-yl]-2-azaspiro[3.3]heptan-2-yl]-[6-[[4-(trifluoromethyl)-1H-imidazol-2-yl]methyl]-2-azaspiro[3.3]heptan-2-yl]methanone] came in with an IC50 of 22.6 nM. The IC50 values of the last two compounds are within 1.5-fold of each other.

Turning to `CS(=O)(=O)c1cnn(CC2CC3(C2)CN(C(=O)N2CC4(CC(n5cnc(C(F)(F)F)n5)C4)C2)C3)c1` [Example 327, [6-[(4-mesylpyrazol-1-yl)methyl]-2-azaspiro[3.3]heptan-2-yl]-[6-[3-(trifluoromethyl)-1,2,4-triazol-1-yl]-2-azaspiro[3.3]heptan-2-yl]methanone], it took 22.2 nM to reach half-maximal inhibition (IC50).

The compound `O=C(N1CC2(CC(n3cnc(C(F)(F)F)n3)C2)C1)N1CC2(CN(Cc3nc(C4(C(F)(F)F)CC4)no3)C2)C1` [Example 328, [6-[[3-[1-(trifluoromethyl)cyclopropyl]-1,2,4-oxadiazol-5-yl]methyl]-2,6-diazaspiro[3.3]heptan-2-yl]-[6-[3-(trifluoromethyl)-1,2,4-triazol-1-yl]-2-azaspiro[3.3]heptan-2-yl]methanone] gave an IC50 of 15 nM.

`O=C(N1CC2(CCN(Cc3cc(C(F)(F)F)no3)CC2)C1)N1CC2(CC(n3cnc(C4CC4)n3)C2)C1` [Example 329, [6-(3-cyclopropyl-1,2,4-triazol-1-yl)-2-azaspiro[3.3]heptan-2-yl]-[7-[[3-(trifluoromethyl)isoxazol-5-yl]methyl]-2,7-diazaspiro[3.5]nonan-2-yl]methanone]: the IC50 came out at 13.9 nM.

`Cn1nc(CC2CC3(C2)CN(C(=O)N2CC4(CC(n5cnc(C6(N)CC6)n5)C4)C2)C3)cc1C(F)(F)F` [Example 330, [6-[3-(1-aminocyclopropyl)-1,2,4-triazol-1-yl]-2-azaspiro[3.3]heptan-2-yl]-[6-[[l-methyl-5-(trifluoromethyl)pyrazol-3-yl]methyl]-2-azaspiro[3.3]heptan-2-yl]methanone] displayed an IC50 of 11.8 nM.

Take `O=C(N1CC2(CC(Cc3ncn(CC(F)(F)F)n3)C2)C1)N1CC2(CC(n3cnc(C(F)(F)F)n3)C2)C1` [Example 331, [6-[[1-(2,2,2-trifluoroethyl)-1,2,4-triazol-3-yl]methyl]-2-azaspiro[3.3]heptan-2-yl]-[6-[3-(trifluoromethyl)-1,2,4-triazol-1-yl]-2-azaspiro[3.3]heptan-2-yl]methanone]: the IC50 turned out to be 11.8 nM. In other words, the double-digit nanomolar range.

`CS(=O)(=O)c1cnn(CC2CC3(C2)CN(C(=O)N2CC4(CC(n5cnc(C6CC6)n5)C4)C2)C3)c1` [Example 332, [6-(3-cyclopropyl-1,2,4-triazol-1-yl)-2-azaspiro[3.3]heptan-2-yl]-[6-[(4-mesylpyrazol-1-yl)methyl]-2-azaspiro[3.3]heptan-2-yl]methanone] yielded an IC50 of 11.5 nM.

As to `O=C(N1CC2(CC(Cn3ncnc3C(F)(F)F)C2)C1)N1CC2(CC(n3cnc(C(F)(F)F)n3)C2)C1` [Example 333, [6-[3-(trifluoromethyl)-1,2,4-triazol-1-yl]-2-azaspiro[3.3]heptan-2-yl]-[6-[[5-(trifluoromethyl)-1,2,4-triazol-1-yl]methyl]-2-azaspiro[3.3]heptan-2-yl]methanone], the IC50 came out at 10.3 nM.

As to `O=C(N1CC2(CC(Cc3cc(C(F)F)n[nH]3)C2)C1)N1CC2(CC(n3cnc(C(F)F)n3)C2)C1` [Example 334, [6-[[3-(difluoromethyl)-1H-pyrazol-5-yl]methyl]-2-azaspiro[3.3]heptan-2-yl]-[6-[3-(difluoromethyl)-1,2,4-triazol-1-yl]-2-azaspiro[3.3]heptan-2-yl]methanone], 9.74 nM corresponded to half-maximal inhibition (IC50).

In turn, `O=C(N1CC2(CC(Cc3n[nH]c(C4(C(F)(F)F)CC4)n3)C2)C1)N1CC2(CC(n3cnc(C(F)F)n3)C2)C1` [Example 335, [6-[3-(difluoromethyl)-1,2,4-triazol-1-yl]-2-azaspiro[3.3]heptan-2-yl]-[6-[[5-[1-(trifluoromethyl)cyclopropyl]-1H-1,2,4-triazol-3-yl]methyl]-2-azaspiro[3.3]heptan-2-yl]methanone] displayed an IC50 of 9.06 nM.

In the case of `O=C(N1CC2(CC(Cc3cn(CC(F)(F)F)nn3)C2)C1)N1CC2(CC(n3cnc(C(F)(F)F)n3)C2)C1` [Example 336, [6-[[1-(2,2,2-trifluoroethyl)triazol-4-yl]methyl]-2-azaspiro[3.3]heptan-2-yl]-[6-[3-(trifluoromethyl)-1,2,4-triazol-1-yl]-2-azaspiro[3.3]heptan-2-yl]methanone], the midpoint of inhibition, the IC50, lay at 8.91 nM.

Regarding `O=C(N1CC2(CC(Cc3nc(C(F)(F)F)c[nH]3)C2)C1)N1CC2(CC(n3cnc(C4(O)CC4)n3)C2)C1` [Example 337, [6-[3-(1-hydroxycyclopropyl)-1,2,4-triazol-1-yl]-2-azaspiro[3.3]heptan-2-yl]-[6-[[4-(trifluoromethyl)-1H-imidazol-2-yl]methyl]-2-azaspiro [3.3]heptan-2-yl]methanone], it took 6.12 nM to reach half-maximal inhibition (IC50). This IC50 and that of the compound before are within 1.5-fold of each other.

Turning to `O=C(N1CC2(CC(n3cnc(C4CC4)n3)C2)C1)N1CC2(CN(Cc3nc(C4(C(F)(F)F)CC4)no3)C2)C1` [Example 338, [6-(3-cyclopropyl-1,2,4-triazol-1-yl)-2-azaspiro[3.3]heptan-2-yl]-[6-[[3-[1-(trifluoromethyl)cyclopropyl]-1,2,4-oxadiazol-5-yl]methyl]-2,6-diazaspiro[3.3]heptan-2-yl]methanone], the IC50 came out at 4.03 nM.

With `O=C(N1CC2(CC(Cc3ncn(CC(F)(F)F)n3)C2)C1)N1CC2(CC(n3cnc(C4CC4)n3)C2)C1` [Example 339, [6-(3-cyclopropyl-1,2,4-triazol-1-yl)-2-azaspiro[3.3]heptan-2-yl]-[6-[[1-(2,2,2-trifluoroethyl)-1,2,4-triazol-3-yl]methyl]-2-azaspiro[3.3]heptan-2-yl]methanone], the IC50 was 3.7 nM. This IC50 and that of the compound before are within 1.5-fold of each other.

Consider `O=C(N1CC2(CC(Cc3cnn(CC(F)(F)F)n3)C2)C1)N1CC2(CC(n3cnc(C(F)(F)F)n3)C2)C1` [Example 340, [6-[[2-(2,2,2-trifluoroethyl)triazol-4-yl]methyl]-2-azaspiro[3.3]heptan-2-yl]-[6-[3-(trifluoromethyl)-1,2,4-triazol-1-yl]-2-azaspiro[3.3]heptan-2-yl]methanone], for which half-maximal inhibition (IC50) was put at 3.62 nM. This IC50 and that of the compound before are within 1.5-fold of each other.
